Source: patent publication US8394801B2, “Quinoxaline derivatives and their use for treating benign and malignant tumour disorders” (Aeterna Zentaris GmbH, priority 2009, dated 2013)

Key:
HCT116 = test: Proliferation assay (Alamar Blue / XTT), HCT116; type: cell-based; conditions: Homo sapiens; cell line HCT-116 (colon)
A549 = test: Proliferation assay (Alamar Blue / XTT), A549; type: cell-based; conditions: Homo sapiens; cell line A549 (lung)
PC-3 = test: Proliferation assay (Alamar Blue / XTT), PC-3; type: cell-based; conditions: Homo sapiens, cell line PC3 (prostate)
U87MG = test: Proliferation assay (Alamar Blue / XTT), U87MG; type: cell-based; conditions: Homo sapiens, U-87 MG; cell line U87MG (glioma)
MDA MB468 = test: Proliferation assay (Alamar Blue / XTT), MDA MB468; type: cell-based; conditions: Homo sapiens, MDA-MB-468; cell line MDA-MB468 (breast)

Structure (SMILES)	EC50 (HCT116) [nM]	EC50 (A549) [nM]	EC50 (PC-3) [nM]	melting point [°C]	EC50 (U87MG) [nM]	EC50 (MDA MB468) [nM]
CCCCNC(=S)Nc1cnc2ccc(-c3cc(Cl)c(O)c(Cl)c3)cc2n1 [Compound 87, 1-Butyl-3-[7-(3,5-dichloro-4-hydroxy-phenyl)-quinoxalin-2-yl]thiourea]	1090	1530	790	226 to 227	2490	464
CC(C)NC(=O)Nc1cnc2ccc(-c3ccc(N)cc3)cc2n1 [Compound 68, 1-[7-(4-Amino-phenyl)-quinoxalin-2-yl]-3-isopropyl-urea]	474	626	453	> 300	529	1670
Oc1c(Cl)cc(-c2ccc3ncc(NC(=S)NCc4ccccc4)nc3c2)cc1Cl [Compound 94, 1-Benzyl-3-[7-(3,5-dichloro-4-hydroxy-phenyl)-quinoxalin-2-yl]-thiourea]	586	891	821	275 to 277	2080	169
CCCNC(=O)Nc1cnc2ccc(-c3cc(Cl)c(O)c(Cl)c3)cc2n1 [Compound 73, 1-[7-(3,5-Dichloro-4-hydroxy-phenyl)-quinoxalin-2-yl]-3-propyl-urea]	1560	3360	1180	295 to 296	4140	814
Oc1c(Cl)cc(-c2ccc3ncc(NC(=S)NCCCc4ccccc4)nc3c2)cc1Cl [Compound 96, 1-[7-(3,5-Dichloro-4-hydroxy-phenyl)-quinoxalin-2-yl]-3-(3-phenyl-propyl)-thiourea]	1540	1820	1650	248 to 250	2350	1040
Oc1c(Cl)cc(-c2ccc3ncc(NC(=S)NCCc4ccccc4)nc3c2)cc1Cl [Compound 97, 1-[7-(3,5-Dichloro-4-hydroxy-phenyl)-quinoxalin-2-yl]-3-phenethyl-thiourea]	700	1510	538	282 to 285	1820	568
CC(C)(C)NC(=O)Nc1cnc2ccc(-c3cc(Cl)c(O)c(Cl)c3)cc2n1 [Compound 77, 1-tert-Butyl-3-[7-(3,5-dichloro-4-hydroxy-phenyl)-quinoxalin-2-yl]-urea]	–	–	–	292 to 295	–	–
CCCNC(=S)Nc1cnc2ccc(-c3cc(Cl)c(O)c(Cl)c3)cc2n1 [Compound 89, 1-[7-(3,5-Dichloro-4-hydroxy-phenyl)-quinoxalin-2-yl]-3-propyl-thiourea]	–	–	–	237 to 239	–	–
Cc1cc(-c2ccc3ncc(NC(=O)Nc4ccc5ccccc5c4)nc3c2)cc(C)c1O [Compound 50, 1-[7-(4-Hydroxy-3,5-dimethylphenyl)quinoxalin-2-yl]-3-naphthalen-2-ylurea]	–	–	–	> 300	–	–
CCCCNC(=O)Nc1cnc2ccc(-c3cc(Cl)c(O)c(Cl)c3)cc2n1 [Compound 72, 1-Butyl-3-[7-(3,5-dichloro-4-hydroxy-phenyl)-quinoxalin-2-yl]-urea]	1820	3260	880	297 to 298	3190	779
O=C(NCCc1ccccc1)Nc1cnc2ccc(-c3cc(Cl)c(O)c(Cl)c3)cc2n1 [Compound 85, 1-[7-(3,5-Dichloro-4-hydroxy-phenyl)-quinoxalin-2-yl]-3-phenethyl-urea]	1300	1840	1260	–	495	1610
CC(C)NC(=O)Nc1cnc2ccc(-c3ccc(O)c(Cl)c3)cc2n1 [Compound 95, 1-[7-(3-Chloro-4-hydroxy-phenyl)-quinoxalin-2-yl]-3-isopropyl-urea]	–	–	–	275 to 277	–	–
O=C(Nc1ccccc1)Nc1cnc2ccc(-c3cc(Cl)c(O)c(Cl)c3)cc2n1 [Compound 86, 1-[7-(3,5-Dichloro-4-hydroxy-phenyl)-quinoxalin-2-yl]-3-phenyl-urea]	–	–	–	> 300	–	–

The next lines start with results.

EC50 (HCT116) [nM]	EC50 (A549) [nM]	EC50 (PC-3) [nM]	melting point [°C]	EC50 (U87MG) [nM]	Structure (SMILES)	EC50 (MDA MB468) [nM]
409	1030	334	288 to 289	1800	Oc1c(Cl)cc(-c2ccc3ncc(NC(=S)NC4CCCCCCC4)nc3c2)cc1Cl [Compound 93, 1-Cyclooctyl-3-[7-(3,5-dichloro-4-hydroxy-phenyl)-quinoxalin-2-yl]-thiourea]	193
325	352	188	275 to 276	222	Cc1cc(-c2ccc3ncc(NC(=O)NCC(C)(C)C)nc3c2)cc(C)c1O [Compound 67, 1-(2,2-Dimethyl-propyl)-3-[7-(4-hydroxy-3,5-dimethyl-phenyl)-quinoxalin-2-yl]-urea]	384
503	1030	300	258 to 260	1160	O=C(Nc1cnc2ccc(-c3cc(Cl)c(O)c(Cl)c3)cc2n1)NC1CCCCCCC1 [Compound 79, 1-Cyclooctyl-3-[7-(3,5-dichloro-4-hydroxy-phenyl)-quinoxalin-2-yl]-urea]	253
1710	2040	1190	277 to 280	2000	Oc1c(Cl)cc(-c2ccc3ncc(NC(=S)NC4CCC4)nc3c2)cc1Cl [Compound 80, 1-Cyclobutyl-3-[7-(3,5-dichloro-4-hydroxy-phenyl)-quinoxalin-2-yl]-thiourea]	672
–	–	–	271 to 272	–	Cc1cc(-c2ccc3ncc(NC(=S)NC4CCCC4)nc3c2)cc(C)c1O [Compound 24, 1-Cyclopentyl-3-[7-(4-hydroxy-3,5-dimethylphenyl)quinoxalin-2-yl]-thiourea]	–
2090	2290	955	260 to 262	1970	Oc1c(Cl)cc(-c2ccc3ncc(NC(=S)NC4CC4)nc3c2)cc1Cl [Compound 83, 1-Cyclopropyl-3-[7-(3,5-dichloro-4-hydroxy-phenyl)-quinoxalin-2-yl]-thiourea]	1050
–	–	–	257	–	CCNC(=O)Nc1cnc2ccc(-c3cc(C)c(O)c(C)c3)cc2n1 [Compound 19, 1-Ethyl-3-[7-(4-hydroxy-3,5-dimethylphenyl)quinoxalin-2-yl]urea]	–
–	–	–	267	–	Cc1cc(-c2ccc3ncc(NC(=O)N[C@@H](C)C(C)C)nc3c2)cc(C)c1O [Compound 54, 1-((S)-1,2-Dimethylpropyl)-3-[7-(4-hydroxy-3,5-dimethylphenyl)-quinoxalin-2-yl]urea]	–
–	–	–	> 300	–	Cc1ccc(NC(=O)Nc2cnc3ccc(-c4cc(C)c(O)c(C)c4)cc3n2)cc1 [Compound 46, 1-[7-(4-Hydroxy-3,5-dimethylphenyl)quinoxalin-2-yl]-3-p-tolylurea]	–
–	–	–	> 300	–	Cc1cc(-c2ccc3ncc(NC(=O)NC(C)(C)CC(C)(C)C)nc3c2)cc(C)c1O [Compound 51, 1-[7-(4-Hydroxy-3,5-dimethylphenyl)quinoxalin-2-yl]-3-(1,1,3,3-tetra-methylbutyl)urea]	–
